# Measured values from PMC9267059, “Selective Inhibition of Murine Cytomegalovirus Viral Gene Expression by the Antiviral Peptide TAT-I24” (International Journal of Molecular Sciences, 2022).
# How the values were obtained:
# [1] = tested on: mouse cytomegalovirus (CMV); conditions: cited from earlier work
# MCMV = experiment: Crystal violet staining of MCMV-infected NIH/3T3 cells (cytopathic effects); assay type: cell-based, murine cytomegalovirus
# Method: This strain was also used in the present investigation. […] However, with increasing concentrations of TAT-I24, the cytopathic effects caused by the virus infection were inhibited (Figure 1A). […] For all further investigations, 10 µM of TAT-I24 was therefore chosen to ensure efficient inhibition of MCMV infection.
# NIH/3T3 cells were seeded at a density of 2 × 10^4 cells/well of a 96-well plate and allowed to attach overnight. On the next day, cells were treated with increasing concentrations of TAT-I24 and infected with MCMV strain delm157-luc rep with centrifugal enhancement twice at 800× g for 15 min. After 48 h, cells were fixed with 4% formaldehyde and stained with 1% crystal violet solution for 30 min at room temperature followed by three times washing with water. Microscopic examination was performed using a Live Cell Video Microscope (Leica Microsystems; Wetzlar, Germany).
# [2] = tested on: host-cell transcripts in NIH/3T3 cells infected with MCMV; experiment: Host-cell transcript levels by quantitative PCR in MCMV-infected NIH/3T3 cells; assay type: cell-based
# MCMV viral DNA = MCMV viral DNA determined by ie1 PCR from RNA extracts; assay type: cell-based, murine cytomegalovirus
# Method: The levels of viral DNA in the RNA extracts were also determined by PCR using the ie1 primer pair. In peptide-treated cells, the amount of viral DNA was about 60% compared to untreated cells. The amount of viral DNA declined in both settings between 2 and 8 h. […] This is in accordance with our earlier study using detection of the luciferase gene of MCMV strain delm157-luc rep.
# NIH/3T3 cells [3] = conditions: 20 µM; cited from earlier work
# Source text: This strain was also used in the present investigation. […] However, with increasing concentrations of TAT-I24, the cytopathic effects caused by the virus infection were inhibited (Figure 1A).
# [4] = tested on: MCMV viral gene expression; experiment: MCMV viral gene transcript levels by quantitative PCR relative to Gapdh; assay type: cell-based, murine cytomegalovirus
# Method: NIH/3T3 fibroblasts were infected with MCMV expressing luciferase at low MOI (MOI 1) with the aid of centrifugal enhancement. Infections were performed either in the absence or presence of 10 µM TAT-I24. Cells were lysed after 30 min or 2-, 4-, 8- and 24-h post-infection. Total RNA was isolated and treated with DNase I to remove viral DNA before synthesis of the cDNA. Levels of viral transcripts were then analyzed by quantitative PCR and normalized to mRNA levels of the glyceraldehyde-3-phosphate dehydrogenase (Gapdh) housekeeping gene.
# NIH/3T3 cells were seeded at a density of 8 × 10^4 cells/well of a 24-well plate and allowed to attach overnight. On the next day, MCMV strain delm157-luc rep was adsorbed to cells (MOI 1) in the absence or presence of 10 µM TAT-I24 and centrifuged twice at 800× g for 15 min. Cells were then kept at 37 °C and lysed after the indicated time-points.
# double-stranded DNA = conditions: cited from earlier work
# Method: To determine whether reduction of host-gene expression early after MCMV infection is related to the ability of the peptide to bind DNA, variants of TAT-I24 were generated with modifications of the TAT fusion partner (Figure 5A). The peptides were tested for their potency in inhibiting MCMV replication and their binding to DNA. […] Inhibition is independent of whether these are immediate-early, early or late genes, as they were all reduced to a similar extent, thereby excluding a specific effect of the peptide on a particular viral gene.
# SV40 polyomavirus = conditions: cited from earlier work
# Source text: (§1) We have described the novel antiviral peptide TAT-I24, a fusion of the 9-mer peptide I24 and the TAT peptide, which exerts broad-spectrum activity against several double-stranded DNA viruses. […] The antiv ...
# [5] = tested on: respiratory syncytial virus (RSV); conditions: cited from earlier work
# Source text: as §1
# [6] = tested on: human cytomegalovirus (CMV); conditions: cited from earlier work
# Source text: as §1
# [7] = tested on: non-replicating baculovirus; conditions: mammalian cells; cited from earlier work
# Source text: as §1
# vaccinia virus = conditions: cited from earlier work
# Source text: as §1
# [8] = tested on: human immunodeficiency virus-1 (HIV-1); conditions: cited from earlier work
# Source text: as §1
# herpes simplex virus = conditions: cited from earlier work
# Source text: as §1
# some adenoviruses = conditions: cited from earlier work
# Source text: as §1
# NIH/3T3 cells [9] = experiment: Cell viability assay (Cell Titer Glo 2.0); assay type: cell-based; conditions: 10 µM, 48 h, Cell Titer Glo 2.0 luminescence, eight replicates per group
# Method: NIH/3T3 cells were grown in CO2-independent medium supplemented with 10% fetal calf serum, 2 mM glutamine and 1% antibiotic-antimycotic (ThermoFisher; Darmstadt, Germany) and cultivated in a humidified atmosphere at 37 °C and passaged once a week. For determination of cell viability, NIH/3T3 cells were seeded at a density of 2 × 10^4 cells/well of a 96-well plate and treated with vehicle (DMSO) or 10 µM TAT-I24. After 48 h, cells were lysed using Cell Titer Glo 2.0 reagent (Promega; Mannheim, Germany) and luminescence recorded using a GloMax Multi instrument (Promega; Mannheim, Germany).
# [10] = MCMV MOI 1, 10 µM, 2 h post-infection
# [11] = MCMV MOI 1, 10 µM, 4 h post-infection
# [12] = MCMV MOI 1, 2 h post-infection, four independent experiments
# [13] = MOI comparison experiment, MOI 1 with 10 µM, 2 h post-infection, two independent experiments
sequence,measurement,setting,value
"GRKKRRQRRRPPQCLAFYACFC [TAT-I24, antiviral peptide, a fusion of the 9-mer peptide I24 and the TAT peptide]",replication of mouse cytomegalovirus (MCMV),[1],inhibit replication
same,effect on cell attachment and morphology,MCMV; 20 µM,some effect on cell attachment and morphology
same,cytopathic effects caused by the virus infection,"MCMV; MCMV MOI 1, 48 h post-infection, increasing concentrations of TAT-I24, crystal violet staining",inhibited
same,Ccl5 transcript levels,"[2]; MCMV MOI 1, 10 µM",reduction
same,"Gadd45a mRNA levels, untreated vs peptide-treated cells","[2]; MCMV MOI 1, 10 µM",no difference
same,"Herpud1 transcript levels, untreated vs peptide-treated cells","[2]; MCMV MOI 1, 10 µM",no differences
same,Top2a transcript levels,"[2]; MCMV MOI 1, 10 µM",no significant effect
same,Ccl7 transcript levels,[2]; [10],reduced
same,Cxcl10 transcript levels,[2]; [10],reduced
same,Ifit1 transcript levels,[2]; [10],significantly reduced
same,Nfkbia transcript levels,[2]; [10],reduced
same,Ccl7 transcript levels,[2]; [11],started to increase
same,Cxcl10 transcript levels,[2]; [11],started to increase
same,Nfkbia mRNA levels,[2]; [11],comparable between untreated and peptide-treated cells
same,Ifit1 mRNA levels,"[2]; MCMV MOI 1, 10 µM, after 4 h",also increased in the presence of the peptide
same,"Ccl5 expression, comparison of peptides",[2]; [12],significant reduction
same,"Ccl7 expression, comparison of peptides",[2]; [12],significant reduction
same,"Ifit1 expression, comparison of peptides",[2]; [12],significant reduction
same,viral DNA (genome copies by ie1 PCR),MCMV viral DNA; [13],not reflected at the level of viral DNA
same,viral DNA after 24 h,"MCMV viral DNA; NIH/3T3, MCMV MOI 1, 10 µM, 24 h post-infection",remained at background levels
same,amount of viral DNA compared to untreated cells,"MCMV viral DNA; NIH/3T3, MCMV MOI 1, 10 µM, ie1 PCR, three independent experiments",about 60%
same,cell viability,NIH/3T3 cells [3],does not affect cell viability
same,reduction of ie1 transcript levels,[4]; [13],90%
same,expression of spliced late gene m129/131,"[4]; NIH/3T3, MCMV MOI 1, 10 µM",reduced
same,gene expression of M94 (late gene),"[4]; NIH/3T3, MCMV MOI 1, 10 µM",strongly inhibited
same,levels of m152 transcripts (early gene),"[4]; NIH/3T3, MCMV MOI 1, 10 µM",strongly reduced
same,m169 mRNA levels (early gene),"[4]; NIH/3T3, MCMV MOI 1, 10 µM",strongly reduced
same,reduction of ie1 transcript levels compared to untreated cells,"[4]; NIH/3T3, MCMV MOI 1, 10 µM, 2 h post-infection, four independent experiments",more than 90%
same,"ie1 transcript levels, comparison of peptides","[4]; NIH/3T3, MCMV MOI 1, 2 h post-infection, four independent experiments",significant inhibitory effect
same,binding to DNA,double-stranded DNA,binds DNA with high affinity
same,replication of SV40 polyomavirus,SV40 polyomavirus,inhibit replication
same,inhibition of RSV,[5],Partial inhibition
same,replication of human cytomegalovirus,[6],inhibit replication
same,reporter gene expression from a non-replicating baculovirus,[7],reduction of reporter gene expression
same,replication of vaccinia virus,vaccinia virus,inhibit replication
same,inhibition of HIV-1,[8],Partial inhibition
same,replication of herpes simplex virus,herpes simplex virus,inhibit replication
same,replication of some adenoviruses,some adenoviruses,inhibit replication
same,cytotoxic effect (cell viability assay),NIH/3T3 cells [9],does not exert any cytotoxic effect
